Results: patent US6831196B2, “Urokinase inhibitors” (Curacyte AG, priority 2000, dated 2004)
Counter-ions that a name gives are not always drawn.

Molecular target: sc-urokinase (Homo sapiens, UniProt P00749)
Assay: Inhibiting urokinase: chromogenic substrate Bz-βAla-Gly-Arg-pNA, Ki by Dixon
Type: biochemical
Settings: 25° C., pH 8.0, mean of at least three determinations
From the text: Inhibiting urokinase with selected compounds in which Y=amidino
Determining the inhibitory effect:
The Ki values are the mean of at least three determinations.

Structure (SMILES)	Ki [µM]
CC(C)(C)OC(=O)N[C@H](COCc1ccccc1)C(=O)NCC(=O)NCc1cccc(C(=N)N)c1 [Boc, D, CH2—O—Bz, H, CH2, 3]	> 1000
CC(C)(C)OC(=O)N[C@@H](CO)C(=O)NCC(=O)NCc1ccc(C(=N)N)cc1 [Boc, L, CH2—OH, H, CH2, 4]	23
N=C(N)c1cccc(CNC(=O)CNC(=O)[C@@H](COCc2ccccc2)NS(=O)(=O)Cc2ccccc2)c1 [Bz—SO2, D, CH2—O—Bz, H, CH2, 3]	> 1000
N=C(N)c1ccc(CNC(=O)CNC(=O)[C@@H](COCc2ccccc2)NS(=O)(=O)Cc2ccccc2)cc1 [Bz—SO2, D, CH2—O—Bz, H, CH2, 4, Benzylsulfonyl-D-Ser(Bz)-Gly-4-amidinobenzyl-amide×TFA]	0.84
CC(C)COC(=O)OC[C@@H](NS(=O)(=O)Cc1ccccc1)C(=O)NCC(=O)NCc1ccc(C(=N)N)cc1 [Bz—SO2, D, CH2—O—COO-iBu, H, CH2, 4, Benzylsulfonyl-D-Ser(COO-isobutyl)-Gly-4-amidino-benzylamide×HCl]	0.5
COC(=O)OC[C@@H](NS(=O)(=O)Cc1ccccc1)C(=O)NCC(=O)NCc1ccc(C(=N)N)cc1 [Bz—SO2, D, CH2—O—COO—CH3, H, CH2, 4]	0.39
N=C(N)c1ccc(CNC(=O)CNC(=O)[C@@H](CO)NS(=O)(=O)CC2CCCCC2)cc1 [CMe—SO2, D, CH2—OH, H, CH2, 4]	0.048
N=C(N)c1ccc(CNC(=O)CNC(=O)[C@H](N)CO)cc1 [H, D, CH2—OH, H, CH2, 4]	12
N=C(N)c1cccc(CNC(=O)CNC(=O)[C@H](N)COCc2ccccc2)c1 [H, D, CH2—O—Bz, H, CH2, 3]	> 1000
N=C(N)c1ccc(CNC(=O)CNC(=O)[C@@H](N)CO)cc1 [H, L, CH2—OH, H, CH2, 4]	21
